The subject of one assay is AMO-1-BTZ. As to the kind of experiment: Myeloma cell line viability, CCK-8, 24 hr. The format is cell-based. Particulars: Homo sapiens, 24 hr treatment. The protocol:
(§1) The Results are the means of 3 independent experiments. Note the concentration-dependent reduction of viability of myeloma cells.
(§2) The cell lines used were the human multiple myeloma cell lines L363 (DSMZ catalogue number ACC 49), AMO-1 (DSMZ catalogue number ACC 538) and ARH-77 (ATCC CRL-1621).
(§3) Multiple myeloma cell lines were maintained in RPMI-1640 culture medium (Sigma-Aldrich, Buchs, Switzerland) supplemented with 10% heat-inactivated fetal bovine serum (FBS), 100 μg/ml streptomycin and 100 U/ml penicillin/streptomycin (Sigma-Aldrich, Buchs, Switzerland). The bortezomib-resistant cell lines were established and maintained from their parental cell line by continuous drug exposure>12 months to their parental cell lines (Soriano et al, Leukemia 30: 2198-2207, 2016).
(§4) The viability of the cells was determined 24 hr post treatment using Cell Counting Kit-8 (CCK-8; MedChemExpress, NJ, USA) according to the manufacturer's instructions.

Another assay concerns AMO-1. The assay can be described thus: Myeloma cell line viability, CCK-8, 24 hr. Particulars: Homo sapiens, AMO1; AMO-1, 24 hr treatment. The format is cell-based. The protocol: as §1, §2, §3, §4
The subject of a further assay is L363wt plasma cell lines. As to the kind of experiment: Intrafemoral Luciferase+ L363wt plasma cell line xenograft in NSG mice, IVIS imaging. Type of assay: in vivo. To be noted: 50 mg/kg, orally, daily, 7 days. The method, then:
Luciferase^+ L363wt plasma cell lines were injected intrafemorally into immunocompromised NSG mice. After 10 days, mice were treated with crizotinib (50 mg/kg, orally, daily) every day for 7 days.
Mice were imaged on an IVIS optical imager on days 10, 14 and 17. Ventral aspects of 3 (of 4) mice are shown. Mice received vehicle (top) or crizotinib (bottom).

In a further assay the test system is L363 cells. As to the kind of experiment: ER stress in L363 cells (spliced vs non-spliced XBP1, ATF4; RT-PCR). To be noted: 5 μM, 4, 8 and 12 h. The format is cell-based, human. The method, then: A, L363 cells were treated with 5 μM crizotinib and the expression of spliced vs non-spliced XBP1 and ATF4 was determined 4, 8 and 12 h post-treatment. Splicing of XBP1 and accumulation of ATF4 are signs of the induction of ER stress. B, Bortezomib-resistant L363aBTZ cells were treated with 5 μM crizotinib and the expression of spliced vs non-spliced XBP1 and ATF4 was determined at 4, 8 and 12 h post-treatment. C, HeLa cells expressing inducible IgM (heavy and light chain) were treated with mifepristone to induce IgM expression over a period of 2 weeks. Afterwards, cells were treated with 1 μM crizotinib for 24 h followed by lysis and immunoblotting against spliced XBP1 to measure ER stress. + and − indicate cells with or without mifepristone treatment, respectively. Induced cells are considered hypersecretory and non-induced cells have a normal level of secretion. Numbers above the blot show the quantification of densitometric measurements from three independent experiments ±SD.
Total RNA was isolated from cell lines using Trizol (Ambion/Thermo Fisher Scientific, MA, USA) and Direct-zol RNA MiniPrep (Zymo Research, CA, USA). 500 ng of total RNA was reverse transcribed using High Capacity cDNA Reverse Transcription kit (Applied Biosystems/Thermo Fisher Scientific, MA, USA) according to the manufacturer's instructions. […]

The subject of another assay is CLL cells. As to the kind of experiment: Viability of activated CLL cells from patients, CellTiter-Glo 72 h (IC50, DSS). Particulars: for IC50: Homo sapiens, CLL cell. Type of assay: cell-based, human. The method, then: CLL cells from patients were stimulated by adherent murine L cells expressing CD40L, BAFF and April for 24 h. The L cells were then removed by immuno-magnetic separation. Washed CLL cells were plated into 384-well plate format (10,000 cells/well) and tested against crizotinib at 5 concentrations in 10-fold dilutions (plates dispensed by an Echo acoustic dispenser, LabCyte Inc., San Jose, CA, USA). The plate was incubated in a humidified environment at 37° C. and 5% CO2. Cell viability was determined after 72 h using the CellTiter-Glo (Promega, Madison, WI, USA) ATP assay according to the manufacturer's instructions and using an Envision 2102 Multilabel reader (PerkinElmer, Shelton, CT, USA). Relative percentage cell viability was calculated by normalising luminescence units for each well to negative (DMSO 0.1%) and positive (100 μM BzCl) control wells. Curve fitting was conducted to obtain IC50 values.
Quantitative scoring of differential drug sensitivity for individual drugs was calculated as drug sensitivity scores (DSS values, Yadav et al., Scientific Reports 4: 5193, 2014). DSS values were calculated for integrated multiple dose-response relationships in high-throughput compound testing as shown.

Setting [1] is: CLL cells from 21 patients, 72 h.

Structures are written as SMILES. Read-outs that look alike come from different tables or passages of the source.

The values that follow come from patent publication US12465607B2, “ALK inhibitors for treatment of ALK-negative cancer and plasma cell-mediated diseases” (UNIVERSITETET I OSLO, priority 2019, dated 2025).

Usually IC50 stands for the midpoint of a concentration-inhibition curve. On to `C[C@@H](Oc1cc(-c2cnn(C3CCNCC3)c2)cnc1N)c1c(Cl)ccc(F)c1Cl` [crizotinib, 3-[(1R)-1-(2,6-dichloro-3-fluorophenyl)ethoxy]-5-(1-piperidin-4-ylpyrazol-4-yl)pyridin-2-amine], for which the IC50 with AMO-1-BTZ was 6.48 µM; in the assay on AMO-1, 3.92 µM; in the assay on CLL cells (3 patient samples, read-out: IC50, highly sensitive CLL samples), < 0.2 µM; in the assay on CLL cells (3 patient samples, read-out: IC50, supersensitive CLL samples) it was < 0.01 µM; with CLL cells (11 patient samples, read-out: IC50, normally sensitive CLL samples), < 2 µM. Further, the “mice with dramatically reduced signals from plasma cells” value with L363wt plasma cell lines is listed as 3 of 4. In the assay on L363wt plasma cell lines, the “plasma cell density (luciferase dependent signals)” value was “reduced plasma cell density”. Moreover, the “ER stress (splicing of XBP1, induction of ATF4)” value in the assay with L363 cells is given as “induced ER stress”. For the same compound, in the assay on CLL cells (21 patients), the “share of patients with CLL cells highly sensitive by drug sensitivity score (DSS)” value is listed as “a third”. Besides, in the assay on CLL cells (CLL cells from 12 new patients), the “patients with susceptible CLL cells, cut-off DSS=10” value is 10/12. In the assay with CLL cells (setting [1]), the “patient samples with CLL cells sensitive” value is reported as 17 of 21. In addition, the “patient samples with CLL cells sensitive, percent” value in the assay on CLL cells (setting [1]) is recorded as 81%. Besides, the “patient samples highly sensitive” value in the assay with CLL cells (IgVH mutated CLL) was “Three out of 15”; with CLL cells (IgVH unmutated CLL), “Four of six”. The results for the “patient samples with low sensitivity” value with CLL cells (IgVH mutated CLL) and with CLL cells (IgVH unmutated CLL) were “Four of the 15” and “None”, respectively.
